Reference: patent US6706509B2, “Oncoprotein protein kinase” (The Regents of the University of California, priority 1993, dated 2004)

System: JNK1
Experiment: Epitope-tagged JNK1 protein kinase activity in transfected COS cells
Format: cell-based
Details: 10 nM EGF or 100 nM TPA
Method: JNK1 protein kinase activity was detected in the immune-complex. Immunecomplex kinase assays using either M2 immunoprecipitates or purified JNK1, JNK-46, and ERK1 or ERK2 were performed at 30° C. for 20 mins using 3 μg of substrate, 20 μM ATP and 5 μCi of [γ-^32P]ATP in 30 μl of kinase buffer (25 mM Hepes (pH 7.6), 20 mM MgCl2, 20 mM β-glycerophosphate, 20 mM p-nitrophenyl phosphate, 0.1 mM Na orthovanadate, 2 mM DTT). The reactions were terminated with Laemmli sample buffer and the products were resolved by SDS-PAGE (12% gel). JNK1 protein activity was also measured after SDS-PAGE by the in-gel kinase assay with the substrate GST-cJun(1-79) as described by Hibi, et al., supra, (1993). Solid-phase protein kinase assays were performed as described by Hibi, et al., supra, (1993). Clarified cell extracts were incubated with GST fusion proteins immobilized on GSH-agarose beads. After 3 hours at 4° C., the beads were washed extensively and bound JNK1 was detected by the addition of [γ-^32P]ATP. The reaction was terminated after 10 mins at 30° C. and the products were resolved by SDS-PAGE. The incorporation of [^32P]phosphate was visualized by autoradiography and quantitated with a phosphorimager and ImageQuant software (Molecular Dynamics Inc., Sunnyvale, Calif.). The methods used for phosphopeptide mapping (Boyle, et al., Cell 64:573-584, 1991) and phosphoamino acid analysis (Alvarez, et al., J. Biol. Chem 266:15227-15285, 1991) were described previously.
Epitope-tagged JNK1 was expressed in COS cells. Control experiments were performed using mock-transfected cells. After 48 hours, the cells were treated either without or with 100 nM TPA, 10 nM EGF, or 80 J/m^2 UV-C and incubated for 1 hr. The cells were lysed in RIPA buffer and the JNK1 proteins were isolated by immunoprecipitation with the M2 monoclonal antibody. JNK1 protein kinase activity was measured after SDS-PAGE using an in-gel kinase assay with the substrate GST-cJun(1-79) polymerized into the gel.
COS-1 cells were maintained in. Dulbecco's modified Eagle's medium supplemented with 5% […] (Gibco-BRL). Metabolic labeling with [^32P]phosphate was performed by incubation of cells in phosphate-free modified Eagle's medium (Flow Laboratories Inc.) supplemented with 0.1% fetal bovine serum and 1 mCi/ml [^32P]orthophosphate (Dupont-NEN). COS cells were treated with 10 nM EGF or 100 nM thorbol myristate acetate. The cells were then incubated for defined times at 37° C. prior to harvesting and measurement of JNK1 protein kinase activity. The data are presented as arbitrary units. […] In contrast, exposure to UV radiation caused a marked increase in JNK1 activity.

EGF: EGF, used at 10 nM to treat COS cells (NSDSECPLSHDGYCLHDGVCMYIEALDKYACNCVVGYIGERCQYRDLKWWELR; UniProt P01133 971-1023, looked up)
JNK1 activation: low level of JNK1 activation
duration of JNK1 activation: approximately 2 hours
